Results reported in ChEMBL document CHEMBL1909046, “DrugMatrix in vitro pharmacology data”.

Experiments:
[1] = target: Beta-1 adrenergic receptor (Homo sapiens, UniProt P08588); test: DRUGMATRIX: Adrenergic beta1 radioligand binding (ligand: [125I] Cyanopindolol); assay type: cell membranes, CHO-K1, Membrane; settings: cho-k1; Not Active = under 50% inhibition at 10 µM
[2] = target: T1, Calcitonin receptor (Homo sapiens, UniProt P30988); assay type: cell membranes, Membrane; settings: t47d; note: in other assays of this panel Not Active means under 50% inhibition at 10 µM
T1 sequence (P30988 whole entry): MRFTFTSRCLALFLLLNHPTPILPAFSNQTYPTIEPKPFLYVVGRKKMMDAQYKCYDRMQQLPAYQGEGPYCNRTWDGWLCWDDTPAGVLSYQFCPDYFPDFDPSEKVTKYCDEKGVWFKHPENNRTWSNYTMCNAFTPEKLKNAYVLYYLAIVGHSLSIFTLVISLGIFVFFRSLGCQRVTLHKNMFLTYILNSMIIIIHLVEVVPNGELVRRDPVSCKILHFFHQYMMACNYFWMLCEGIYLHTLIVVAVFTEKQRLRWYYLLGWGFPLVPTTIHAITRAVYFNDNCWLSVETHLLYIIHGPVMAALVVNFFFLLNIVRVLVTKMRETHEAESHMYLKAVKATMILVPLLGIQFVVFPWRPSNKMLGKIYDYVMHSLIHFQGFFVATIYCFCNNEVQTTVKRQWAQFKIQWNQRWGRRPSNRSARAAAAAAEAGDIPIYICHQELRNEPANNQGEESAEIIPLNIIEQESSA

[3] = target: T2, Endothelin-1 receptor (Homo sapiens, UniProt P25101); assay type: cell membranes, Membrane; settings: cho-k1; note: in other assays of this panel Not Active means under 50% inhibition at 10 µM
T2 sequence (P25101 whole entry): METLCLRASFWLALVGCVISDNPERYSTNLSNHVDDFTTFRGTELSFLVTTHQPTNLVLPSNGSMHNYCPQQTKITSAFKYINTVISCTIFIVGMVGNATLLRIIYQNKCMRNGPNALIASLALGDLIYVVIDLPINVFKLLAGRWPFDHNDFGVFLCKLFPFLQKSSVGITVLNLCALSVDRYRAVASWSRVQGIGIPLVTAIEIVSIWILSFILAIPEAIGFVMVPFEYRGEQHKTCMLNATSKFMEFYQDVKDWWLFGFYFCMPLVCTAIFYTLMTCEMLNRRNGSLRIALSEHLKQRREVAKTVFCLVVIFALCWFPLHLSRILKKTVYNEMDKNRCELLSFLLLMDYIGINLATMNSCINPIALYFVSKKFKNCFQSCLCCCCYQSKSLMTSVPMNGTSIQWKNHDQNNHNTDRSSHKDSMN

[4] = target: T3, Muscarinic acetylcholine receptor M4 (Homo sapiens, UniProt P08173); assay type: cell membranes, CHO-K1, Membrane; note: in other assays of this panel Not Active means under 50% inhibition at 10 µM
T3 sequence (P08173 whole entry): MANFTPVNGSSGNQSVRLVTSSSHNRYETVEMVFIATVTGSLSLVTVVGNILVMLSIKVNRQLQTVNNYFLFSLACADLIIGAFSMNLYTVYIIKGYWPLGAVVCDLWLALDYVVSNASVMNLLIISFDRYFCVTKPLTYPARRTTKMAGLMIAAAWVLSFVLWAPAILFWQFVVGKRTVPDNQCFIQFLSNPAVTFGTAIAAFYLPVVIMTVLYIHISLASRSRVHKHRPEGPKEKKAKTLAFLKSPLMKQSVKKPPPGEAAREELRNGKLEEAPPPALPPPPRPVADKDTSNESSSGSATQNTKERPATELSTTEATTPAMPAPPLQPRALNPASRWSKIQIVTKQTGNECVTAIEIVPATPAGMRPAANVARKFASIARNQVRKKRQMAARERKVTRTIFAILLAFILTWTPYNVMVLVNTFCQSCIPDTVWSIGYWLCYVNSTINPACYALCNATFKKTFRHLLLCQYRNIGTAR

[5] = target: T4, Cathepsin G (Homo sapiens, UniProt P08311); assay type: tissue-based; settings: neutrophil;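 note: inhibition of Cathepsin G enzyme activity, tested on an AMC-conjugated peptide substrate; in other assays of this panel Not Active means under 50% inhibition at 10 µM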
T4 sequence (P08311 whole entry): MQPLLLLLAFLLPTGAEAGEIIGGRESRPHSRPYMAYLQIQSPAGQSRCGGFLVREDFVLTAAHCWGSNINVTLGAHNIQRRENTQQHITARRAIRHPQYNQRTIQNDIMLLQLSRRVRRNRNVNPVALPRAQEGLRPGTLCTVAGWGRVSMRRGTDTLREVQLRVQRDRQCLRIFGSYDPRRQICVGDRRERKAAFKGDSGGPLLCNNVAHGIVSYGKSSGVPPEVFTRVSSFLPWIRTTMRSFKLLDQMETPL

[6] = target: Acetylcholinesterase (Homo sapiens, UniProt P22303); test: DRUGMATRIX: Acetylcholinesterase enzyme inhibition (substrate: acetylthiocholine); assay type: cell-based, HEK293; settings: hek293; Not Active = under 50% inhibition at 10 µM
Acetylcholinesterase, sequence (P22303 whole entry): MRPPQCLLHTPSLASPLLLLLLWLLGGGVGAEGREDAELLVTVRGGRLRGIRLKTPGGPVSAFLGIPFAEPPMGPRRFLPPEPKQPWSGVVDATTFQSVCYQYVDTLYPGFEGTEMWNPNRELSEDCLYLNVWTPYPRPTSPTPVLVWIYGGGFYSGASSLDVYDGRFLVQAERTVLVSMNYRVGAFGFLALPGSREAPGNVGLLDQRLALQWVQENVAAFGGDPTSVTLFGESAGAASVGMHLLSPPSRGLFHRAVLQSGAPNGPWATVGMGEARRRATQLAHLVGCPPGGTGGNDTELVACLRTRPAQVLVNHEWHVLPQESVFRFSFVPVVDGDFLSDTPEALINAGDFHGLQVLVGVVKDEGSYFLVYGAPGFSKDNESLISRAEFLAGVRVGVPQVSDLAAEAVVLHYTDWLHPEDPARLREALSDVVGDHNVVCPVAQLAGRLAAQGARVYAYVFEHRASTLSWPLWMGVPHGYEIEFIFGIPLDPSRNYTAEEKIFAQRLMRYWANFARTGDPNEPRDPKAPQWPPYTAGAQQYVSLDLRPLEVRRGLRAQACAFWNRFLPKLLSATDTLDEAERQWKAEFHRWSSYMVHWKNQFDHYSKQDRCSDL

[7] = target: T5, Adenosine receptor A1 (Homo sapiens, UniProt P30542); assay type: cell membranes, CHO, Membrane
T5 sequence (P30542 whole entry): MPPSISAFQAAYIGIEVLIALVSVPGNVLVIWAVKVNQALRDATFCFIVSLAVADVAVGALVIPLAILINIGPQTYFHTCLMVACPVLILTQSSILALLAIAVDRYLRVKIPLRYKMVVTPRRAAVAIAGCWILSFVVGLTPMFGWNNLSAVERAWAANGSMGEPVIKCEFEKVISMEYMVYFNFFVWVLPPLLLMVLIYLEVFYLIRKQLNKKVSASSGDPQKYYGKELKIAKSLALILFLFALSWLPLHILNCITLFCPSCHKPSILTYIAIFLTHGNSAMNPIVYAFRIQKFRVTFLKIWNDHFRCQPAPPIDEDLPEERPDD

Beta-1 adrenergic receptor, sequence (P08588 whole entry): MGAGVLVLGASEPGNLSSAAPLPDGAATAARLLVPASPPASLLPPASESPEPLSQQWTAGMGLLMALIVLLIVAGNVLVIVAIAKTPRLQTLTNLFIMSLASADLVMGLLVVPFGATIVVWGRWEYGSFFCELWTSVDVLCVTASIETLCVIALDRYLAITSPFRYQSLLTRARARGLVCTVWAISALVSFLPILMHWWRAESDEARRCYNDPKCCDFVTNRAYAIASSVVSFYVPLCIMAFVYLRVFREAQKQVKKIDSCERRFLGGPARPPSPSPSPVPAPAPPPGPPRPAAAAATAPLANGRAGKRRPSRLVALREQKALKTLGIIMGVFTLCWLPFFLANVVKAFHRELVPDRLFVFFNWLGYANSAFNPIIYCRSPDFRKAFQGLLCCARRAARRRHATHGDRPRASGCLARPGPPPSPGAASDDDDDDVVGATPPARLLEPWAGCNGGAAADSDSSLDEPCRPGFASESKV

| Compound | IC50 [1] | IC50 [2] | IC50 [3] | IC50 ([4]; cho-k1) | IC50 [5] | IC50 [6] | IC50 ([7]; cho) | IC50 ([4]; read-out: IC50) | Ki ([4]; read-out: Ki) | Ki [1] | Ki [2] | Ki [3] | Ki ([4]; cho-k1) | Ki [5] | Ki [6] | Ki ([7]; cho) | IC50 ([7]; read-out: IC50) | Ki ([7]; read-out: Ki) |
| --- | --- | --- | --- | --- | --- | --- | --- | --- | --- | --- | --- | --- | --- | --- | --- | --- | --- | --- |
| CC[C@]1(O)C[C@@H]2CN(CCc3c([nH]c4ccccc34)[C@@](C(=O)OC)(c3cc4c(cc3OC)N(C)[C@H]3[C@@](O)(C(N)=O)[C@H](O)[C@]5(CC)C=CCN6CC[C@]43[C@@H]65)C2)C1 [VINDESINE] | Not Active | Not Active | Not Active | Not Active | Not Active | Not Active | Not Active |  |  |  |  |  |  |  |  |  |  |  |
| CCOc1nc2cccc(C(=O)O)c2n1Cc1ccc(-c2ccccc2-c2nnn[nH]2)cc1 | Not Active | Not Active | Not Active | Not Active | Not Active | Not Active | Not Active |  |  |  |  |  |  |  |  |  |  |  |
| C[S+](C)[O-] [DIMETHYL SULFOXIDE] | Not Active | Not Active | Not Active | Not Active | Not Active | Not Active | Not Active |  |  |  |  |  |  |  |  |  |  |  |
| C[C@@H]1O[C@@H](O[C@H]2C[C@@H](O)[C@]3(CO)[C@H]4[C@H](O)C[C@]5(C)[C@@H](C6=CC(=O)OC6)CC[C@]5(O)[C@@H]4CC[C@]3(O)C2)[C@H](O)[C@H](O)[C@H]1O [OUABAIN] | Not Active | Not Active | Not Active | Not Active | Not Active | Not Active | Not Active |  |  |  |  |  |  |  |  |  |  |  |
| C#C[C@]1(O)CC[C@H]2[C@@H]3CCC4=CC(=O)CC[C@]4(C)[C@H]3CC[C@@]21C [ETHISTERONE] | Not Active | Not Active | Not Active | Not Active | Not Active | Not Active | Not Active |  |  |  |  |  |  |  |  |  |  |  |
| O=C(c1ccccc1F)N1CCC(Cc2ccccc2)CC1 | Not Active | Not Active | Not Active | Not Active | Not Active | Not Active | Not Active |  |  |  |  |  |  |  |  |  |  |  |
| O=C(O)CCNC(=O)c1ccc(/N=N/c2ccc(O)c(C(=O)O)c2)cc1 [BALSALAZIDE] | Not Active | Not Active | Not Active | Not Active | Not Active | Not Active | Not Active |  |  |  |  |  |  |  |  |  |  |  |
| N=C(N)c1ccc(OCCCCCOc2ccc(C(=N)N)cc2)cc1 [PENTAMIDINE] | Not Active | Not Active | Not Active |  | Not Active | Not Active | Not Active | 1.58 µM | 0.22 µM |  |  |  |  |  |  |  |  |  |
| CN1C(=O)CN=C(c2ccccc2)c2cc([N+](=O)[O-])ccc21 [NIMETAZEPAM] | Not Active | Not Active | Not Active | Not Active | Not Active | Not Active | Not Active |  |  |  |  |  |  |  |  |  |  |  |
| NS(=O)(=O)c1cc(C2(O)NC(=O)c3ccccc32)ccc1Cl (configuration not stated) [CHLORTHALIDONE] | Not Active | Not Active | Not Active | Not Active | Not Active | Not Active | Not Active |  |  |  |  |  |  |  |  |  |  |  |
| CC(=O)OCC(=O)[C@@]1(O)CC[C@H]2[C@@H]3CCC4=CC(=O)CC[C@]4(C)[C@@]3(F)[C@@H](O)C[C@@]21C [FLUDROCORTISONE ACETATE] | Not Active | Not Active | Not Active | Not Active | Not Active | Not Active | Not Active |  |  |  |  |  |  |  |  |  |  |  |
| COLISTIN | Not Active | Not Active | Not Active | Not Active | Not Active | Not Active | Not Active |  |  | Not Active | Not Active | Not Active | Not Active | Not Active | Not Active | Not Active |  |  |
| O=c1c(-c2ccc(O)cc2)coc2cc(O)cc(O)c12 [GENISTEIN] | Not Active | Not Active | Not Active | Not Active | Not Active | Not Active |  |  |  |  |  |  |  |  |  |  | 19.9 µM | 11.6 µM |
| CN1C[C@@H]2C[C@H]1CN2c1cc2c(cc1F)c(=O)c(C(=O)O)cn2C1CC1 [DANOFLOXACIN] | Not Active | Not Active | Not Active | Not Active | Not Active | Not Active | Not Active |  |  |  |  |  |  |  |  |  |  |  |
| C[C@]12C=CC(=O)C=C1CC[C@H]1[C@@H]3C[C@@H](O)[C@](O)(C(=O)CO)[C@@]3(C)C[C@H](O)[C@@]12F [TRIAMCINOLONE] | Not Active | Not Active | Not Active | Not Active | Not Active | Not Active | Not Active |  |  |  |  |  |  |  |  |  |  |  |
| CN1CCN(c2c(F)cc3c(=O)c(C(=O)O)cn(CCF)c3c2F)CC1 [FLEROXACIN] | Not Active | Not Active | Not Active | Not Active | Not Active | Not Active | Not Active |  |  |  |  |  |  |  |  |  |  |  |
| CC(C)(C(=O)O)c1ccc(C(O)CCCN2CCC(C(O)(c3ccccc3)c3ccccc3)CC2)cc1 (configuration not stated) [FEXOFENADINE] | Not Active | Not Active | Not Active | Not Active | Not Active | Not Active | Not Active |  |  |  |  |  |  |  |  |  |  |  |
| CC(O)(P(=O)(O)O)P(=O)(O)O [ETIDRONIC ACID] | Not Active | Not Active | Not Active | Not Active | Not Active | Not Active | Not Active |  |  |  |  |  |  |  |  |  |  |  |
| CCOC(=O)c1ncn2c1CN(C)C(=O)c1cc(F)ccc1-2 [FLUMAZENIL] | Not Active | Not Active | Not Active | Not Active | Not Active | Not Active | Not Active |  |  |  |  |  |  |  |  |  |  |  |
| NNCCc1ccccc1 [PHENELZINE] | Not Active | Not Active | Not Active | Not Active | Not Active | Not Active | Not Active |  |  |  |  |  |  |  |  |  |  |  |
| COc1ccc2c(c1OC)C(=O)O[C@@H]2[C@H]1c2c(cc3c(c2OC)OCO3)CCN1C [NOSCAPINE] | Not Active | Not Active | Not Active | Not Active | Not Active | Not Active | Not Active |  |  |  |  |  |  |  |  |  |  |  |
| COBALTOUS CHLORIDE | Not Active | Not Active | Not Active | Not Active | Not Active | Not Active | Not Active |  |  | Not Active | Not Active | Not Active | Not Active | Not Active | Not Active | Not Active |  |  |
| CC(=O)Oc1ccccc1C(=O)O [ASPIRIN] | Not Active | Not Active | Not Active | Not Active | Not Active | Not Active | Not Active |  |  |  |  |  |  |  |  |  |  |  |
